Reference: patent US6984632B1, “Complexes of paroxetine, with cyclodextrins or cyclodextrin derivatives” (Italfarmaco S.p.A., priority 1999, dated 2006)
Converted amounts (≈) assume the structure as drawn. Where a name gives a salt, the structure may show the parent alone.

Experiments:
Assay type in all cases: physicochemical
[1] = Solubility in water of complex of Example 9 vs non-complexed paroxetine base; details: thermodynamic from solid; deionised water, room temperature, 4 hours stirring, spectrophotometry at 293 nm; read-out: solubility (content of paroxetine base in the solution)
Experimental: 5 g of the product of Example 9 were added to 10 ml of deionised water and kept under stirring for 4 hours at room temperature.
The suspension was then filtered through a cellulose acetate filter in order to remove the undissolved product.
The solution was analysed by 293 nm spectrophotometry against a standard solution of paroxetine base.

[2] = Stability at 60° C., visual examination
Experimental: About 200 mg of paroxetine base and 1 g of the complex of Example 9 (corresponding to about 180 mg of paroxetine base) have each been introduced in a neutral white glass containers and stored, opened, in an oven at 60° C.
The product in the two containers has been visually examined after 48 hours of storage.

[3] = Solubility in water of complexes of Examples 1-5 vs non-complexed paroxetine HCl; details: thermodynamic from solid; deionized water, 25° C., 24 hours stirring, spectrophotometry at 295 nm
Experimental: A solubility test was carried out on an amount of the complexes of Examples 1 to 5 corresponding 500 mg of paroxetine HCl and, as a comparison, on 500 mg of non-complexed paroxetine HCl.
Each sample was introduced into a container containing 5 ml of deionized water. The containers, closed with a plug were then set under stirring in a thermostatic bath at 25° C. for 24 hours.
The obtained suspensions were then filtered through a cellulose acetate filter and analysed by spectrophotometry at 295 nm, in comparison with a standard solution of paroxetine.
The results obtained are reported in FIG. 1 wherein the solubility of paroxetine HCl (in mg/ml) is represented as a function of the molar ratio between β-cyclodextrin and paroxetine HCl.

SMILES | solubility at 4 h [1] | visual appearance ([2]; 48 h 60° C., open glass container) | visual appearance ([2]; Initial) | solubility at 24 h [3]
Fc1ccc([C@@H]2CCNC[C@H]2COc2ccc3c(c2)OCO3)cc1 [Paroxetine base, Paroxetine] | 300 µg/mL (≈ 911 µM) | Brown liquid | Straw-Yellow liquid | –
Fc1ccc([C@@H]2CCNC[C@H]2COc2ccc3c(c2)OCO3)cc1 [non-complexed paroxetine HCl, paroxetine HCl] | – | – | – | 5000 µg/mL
